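The compound was tested at five concentrations on cells cultured in 96-well plates, with a 48-hour exposure period. GI50 = concentration required for 50% inhibition of growth.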 Activity calls are given as the source filed them. Cut-off read from the data, not from the text of the source: active = GI50 up to about 1.1 µM and inactive = higher.
Columns and labels:
Assay in all cases: NCI-60 cell line screen, 48 h
ACHN = test system: ACHN
OVCAR-8 = test system: OVCAR-8
IGROV-1 = test system: IGROV-1
RXF 393 = test system: RXF 393
CAKI-1 = test system: CAKI-1
A549 = test system: A549
UO-31 = test system: UO-31
SNB-75 = test system: SNB-75
SK-MEL-2 = test system: SK-MEL-2
NCI/ADR-RES = test system: NCI/ADR-RES
COLO 205 = test system: COLO 205
NCI-H23 = test system: NCI-H23
SK-MEL-28 = test system: SK-MEL-28
OVCAR-5 = test system: OVCAR-5
DU-145 = test system: DU-145
SF-295 = test system: SF-295
HCT-116 = test system: HCT-116
HT-29 = test system: HT-29
KM12 = test system: KM12
TK-10 = test system: TK-10

| SMILES | GI50 (ACHN) | GI50 (OVCAR-8) | GI50 (IGROV-1) | GI50 (RXF 393) | GI50 (CAKI-1) | GI50 (A549) | GI50 (UO-31) | GI50 (SNB-75) | GI50 (SK-MEL-2) | GI50 (NCI/ADR-RES) | GI50 (COLO 205) | GI50 (NCI-H23) | GI50 (SK-MEL-28) | GI50 (OVCAR-5) | GI50 (DU-145) | GI50 (SF-295) | GI50 (HCT-116) | GI50 (HT-29) | GI50 (KM12) | GI50 (TK-10) |
| --- | --- | --- | --- | --- | --- | --- | --- | --- | --- | --- | --- | --- | --- | --- | --- | --- | --- | --- | --- | --- |
| CO[C@H]1O[C@@H]2OC3(C)CCC4[C@H](C)CCC([C@H]1C)[C@]42OO3 (stereo not given in full) | > 100 µM (inactive) | 53.6 µM (inactive) | > 100 µM (inactive) | > 100 µM (inactive) | > 100 µM (inactive) | > 100 µM (inactive) | 24.8 µM (inactive) | 85.9 µM (inactive) | > 100 µM (inactive) | 44.2 µM (inactive) | 28.2 µM (inactive) | > 100 µM (inactive) | > 100 µM (inactive) | > 100 µM (inactive) | > 100 µM (inactive) | > 100 µM (inactive) | > 100 µM (inactive) | > 100 µM (inactive) |  |  |
| COc1c(C)c(C/C=C(\C)CCCC(C)CCCC(C)CCCC(C)C)c(OC)c2ccccc12 (stereo not given) | > 100 µM (inactive) | > 100 µM (inactive) | > 100 µM (inactive) | > 100 µM (inactive) | > 100 µM (inactive) | > 100 µM (inactive) | > 100 µM (inactive) | > 100 µM (inactive) | > 100 µM (inactive) | > 100 µM (inactive) | > 100 µM (inactive) | > 100 µM (inactive) |  | > 100 µM (inactive) | > 100 µM (inactive) | > 100 µM (inactive) | > 100 µM (inactive) | > 100 µM (inactive) | > 100 µM (inactive) | > 100 µM (inactive) |
| Cc1cc2c(cc1C)C(=O)C1(C2)Cc2c(ccc(C)c2C)C1=O (stereo not given) | > 100 µM (inactive) | 72.8 µM (inactive) | > 100 µM (inactive) | 53.8 µM (inactive) | > 100 µM (inactive) | 73.6 µM (inactive) | > 100 µM (inactive) | 64.6 µM (inactive) | > 100 µM (inactive) | > 100 µM (inactive) | > 100 µM (inactive) |  | > 100 µM (inactive) | > 100 µM (inactive) | > 100 µM (inactive) | > 100 µM (inactive) | > 100 µM (inactive) |  | > 100 µM (inactive) | > 100 µM (inactive) |
| c1ccc(/C(=N/Nc2cnccn2)c2ncccn2)cc1 | 40.7 µM (inactive) | 46 µM (inactive) | 23.7 µM (inactive) | > 100 µM (inactive) | 50.9 µM (inactive) | > 100 µM (inactive) | 29 µM (inactive) | 13.7 µM (inactive) | > 100 µM (inactive) | 83.2 µM (inactive) | 32.1 µM (inactive) | > 100 µM (inactive) | > 100 µM (inactive) | > 100 µM (inactive) | 90.2 µM (inactive) | > 100 µM (inactive) | > 100 µM (inactive) | 27.4 µM (inactive) | 39 µM (inactive) |  |
| C=C1C(=O)OC2CC(C)C(/C=C/C(C)=O)=CCC12 (stereo not given) | > 100 µM (inactive) | > 100 µM (inactive) | > 100 µM (inactive) | > 100 µM (inactive) | > 100 µM (inactive) | > 100 µM (inactive) |  | 2.99 µM (inactive) | > 100 µM (inactive) | > 100 µM (inactive) | 90.6 µM (inactive) | > 100 µM (inactive) | > 100 µM (inactive) | > 100 µM (inactive) | > 100 µM (inactive) | > 100 µM (inactive) | 43.3 µM (inactive) | > 100 µM (inactive) | > 100 µM (inactive) | > 100 µM (inactive) |
| CN1C(=O)C(CC=O)(C(C)(C)C)c2ccccc21 (stereo not given) | 47.2 µM (inactive) |  |  | > 100 µM (inactive) | 54.7 µM (inactive) | > 100 µM (inactive) | 64 µM (inactive) | 99.5 µM (inactive) | > 100 µM (inactive) | > 100 µM (inactive) | > 100 µM (inactive) | > 100 µM (inactive) | > 100 µM (inactive) | > 100 µM (inactive) | 56.4 µM (inactive) | > 100 µM (inactive) | 76.4 µM (inactive) |  | > 100 µM (inactive) |  |
| Cc1ccnc2nc(-c3cccc(Cl)c3)cc(O)c12 | 1.34 µM (inactive) | 0.308 µM (active) | 0.185 µM (active) | 2.77 µM (inactive) | 1.33 µM (inactive) | 0.0748 µM (active) |  | > 10 µM (inactive) | 0.0675 µM (active) | 0.1 µM (active) | 0.0598 µM (active) | 0.826 µM (active) | 1.9 µM (inactive) |  | 0.495 µM (active) | 0.0426 µM (active) | 0.0269 µM (active) | 0.0401 µM (active) | 0.0682 µM (active) | > 100 µM (inactive) |
| COc1ccccc1N/C(=C\C(=O)C(=O)NC12CC3CC(CC(C3)C1)C2)c1ccccc1 | > 10 µM (inactive) | > 10 µM (inactive) | > 10 µM (inactive) | > 10 µM (inactive) | > 10 µM (inactive) |  | 7.73 µM (inactive) | > 10 µM (inactive) | > 10 µM (inactive) | > 10 µM (inactive) | > 10 µM (inactive) | > 10 µM (inactive) | > 10 µM (inactive) | > 10 µM (inactive) | > 10 µM (inactive) | > 10 µM (inactive) |  | > 10 µM (inactive) | > 10 µM (inactive) | > 10 µM (inactive) |

Reference: ChEMBL document CHEMBL1201862, “PubChem BioAssay data set” (2004)
